Data from patent publication US20100137266A1, “TREATMENT OF INSULIN RESISTANCE AND DISORDERS ASSOCIATED THEREWITH” (UNIVERSITETET I OSLO, priority 2006, published 2010).

Tests used:
[1] = tested on: LXR target genes; experiment: Gene expression of LXR target genes in myotubes by Real-Time RT-PCR; type: cell-based, human; details: for expression of LXRα, increase / expression of SREBP1c, increase: mRNA normalized to 36B4; for mRNA expression of ACSL1, increase / mRNA expression of FAS, increase / mRNA expression of SCD-1, increase / mRNA expression of fatty acid transporter CD36, increase: 1 μM T0901317 or 10 μM 22-R-HC for 4 days; for mRNA expression of CD36, FAS, ACSL1 and SCD-1 compared to T0901317: 10 μM for 4 days vs 1 μM T0901317
Description: FIG. 5. Effects of 22-hydroxycholesterols on expression of LXR target genes in human myotubes. Human myoblasts were differentiated and treated with LXR ligands as described in FIG. 3. Total RNA were isolated from the cells, reversely transcribed and analyzed by Real-Time RT-PCR. Results are normalized to levels of 36B4 and present means±SEM (n=4-6; independent muscle cell donors). Relative expressions of (A) liver X receptor […], LXRβ, and sterol regulatory element-binding protein (SREBP)1c, (B) ATP-binding cassette transporter (ABC)A1 (C) acyl-CoA synthetase long chain family member 1 (ACSL1), fatty acid transporter (CD36), fatty acid synthase (FAS), and stearoyl-CoA desaturase (SCD)-1. *p<0.05 vs control, **p<0.05 vs all other treatments.
Human skeletal muscle cell cultures. A cell bank of satellite cells was established from muscle biopsy samples of the M. vastus lateralis of 6 healthy volunteers, age 25.7 years (±1.4), with BMI 21.6 (±1.0) and fasting glucose and insulin within normal range. The biopsies were obtained with informed consent and by approval of the National Committee for Research Ethics, Oslo, Norway. Muscle cell cultures free of fibroblasts were established by the method of Henry et al. (Diabetes, 44, 936-946, 1995), with minor modifications. Briefly, muscle tissue was dissected in Ham's F-10 media at 4° C., dissociated by three successive treatments with 0.05% trypsin/EDTA, and satellite cells were re-suspended in SkGM with 2% FCS and no added insulin. The cells were grown on culture wells coated with ECM gel (Apmis, 109, 726-734, 2001). At about 80% confluence, fusion of myoblasts into multinucleated myotubes was achieved by growth in DMEM with 2% FCS. All cells used were at passage 4 to 6. After 2 days in DMEM the cells were exposed to vehicle (0.1% DMSO), 1 μM T0901317, 10 μM 22-R-hydroxycholesterol (22-R-HC) or 10 μM 22-S-hydroxycholesterol (22-S-HC) for 4 days.
RNA isolation and analysis of gene expression by RT-PCR. Myotubes were washed, trypsinized and pelleted before total RNA was isolated by RNeasy Mini kit (Qiagen Sciences, Oslo, Norway) or Agilent Total RNA Mini kit (Matrix, Oslo, Norway) according to the suppliers total RNA isolation protocol. RNA samples were incubated with RNase-free DNase (Qiagen Sciences) for minimum 15 min in an additional step during the RNA isolation procedure. Total RNA (1 μg/μl) was reversely transcribed with hexamere primers using a Perkin-Elmer Thermal Cycler 9600 (25° C. for 10 min, 37° C. for 1 h, 99° C. for 5 min) and a TaqMan reverse-transcription reagents kit (Applied Biosystems). Real time PCR was performed using an ABI PRISM® 7000 Detection System. DNA expression was determined by SYBR® Green (Applied Biosystems), and primers [36B4 (Acc#M17885), ACSL1 (Acc#NM_001995), ABCA1 (Acc#AF165281), CD36 (Acc#L06850), FAS (Acc#U26644), GAPDH (Acc#J104038/M33197, GLUT4 (Acc#M20747), LXRα (Acc#U22662), LXR (Acc#U07132), Myogenin (Acc#X17651), MyoD (Acc#BC064493), PPARα (Acc#L02932), PPARδ (Acc#BC002715), PPARγ (Acc#L40904), SCD-1 (Acc#AB032261), SREBP1c (Acc#U00968)], GLUT1, (Acc#03195), GLUT3 (Acc#M20681), HKII (Acc#AF148513) were designed using Primer Express® (Applied Biosystems). Each target gene was quantified in triplicates and carried out in a 25 μl reaction volume according to the suppliers protocol. All assays were run for 40 cycles (95° C. for 12 s followed by 60° C. for 60 s). The transcription levels were normalized to the housekeeping control genes 36B4 and GAPDH.

[2] = tested on: rat FAS luciferase reporter; experiment: Transfection and luciferase assay with rat FAS promoter reporter in COS-1 cells co-transfected with RXRα and LXRα; type: cell-based; details: COS-1 cells with RXRα and LXRα expression vectors; 1 μM T0901317 or 10 μM 22-HC for 48 h; vs unstimulated control cells
Protocol: FIG. 6. […] COS-1 cells were transient transfected with rat FAS luciferase reporter and co-transfected with β-galactosidase (internal control), RXRα and LXRα expression vectors. Medium was supplied with vehicle (0.1% DMSO), 1 μM T0901317, 10 μM 22-R-hydroxycholesterol (22-R-HC) or 10 μM 22-S— hydroxycholesterol (22-S-HC) for 48 h. The results represent one of two experiments performed with triplicate cell culture dishes and are presented as means±SD.
Transfection and Luciferase Assay. Monkey kidney COS-1 cells (ATCC no. CRL 1650) were grown in DMEM supplemented with 10% FBS. For reporter gene assays, COS-1 cells were transiently transfected with luciferase reporter containing sequences from −1594 to +67 bp of the rat FAS promoter (5 μg), with a known LXR responsive element (LXRE) located at −669 to −655 (kindly provided by Peter Tontonoz, Howard Hughes Medical Institute, California, USA) and co-transfected with pCMX-RXRα, pCMX-LXRα, (1 μg each), and pSV-β-galactosidase (3 μg) expression vectors with calcium phosphate precipitation. Total DNA concentration was adjusted to 12 μg with corresponding empty expression vectors and pGL3-basic vector. After 3 h of transfection, medium containing appropriate reagents was added for 48 h. Cells were harvested in 100 μl lysis buffer, and luciferase activities were measured in a TD-20/20 Luminometer (Turner Designs, Sunnyvale, Calif.) using the dual luciferase assay kit (Promega). Relative luciferase activity was normalized against β-galactosidase activity.

[3] = 1 μM T0901317 or 10 μM 22-HC for 4 days
[4] = 10 μM chronic treatment (4 days)

SMILES | expression level of ABCA1, increase [1, 3] | expression of LXRα, increase [1, 3] | expression of SREBP1c, increase [1, 3] | mRNA expression of ACSL1, increase [1] | mRNA expression of FAS, increase [1] | mRNA expression of SCD-1, increase [1] | mRNA expression of fatty acid transporter CD36, increase [1] | rat FAS promoter luciferase reporter activity [2] | expression level of LXRbeta [1, 3] | ACSL1 mRNA expression, down-regulation [1, 4] | CD36 mRNA expression, down-regulation [1, 4] | SCD-1 mRNA expression, down-regulation [1, 4] | mRNA expression of CD36, FAS, ACSL1 and SCD-1 compared to T0901317 [1]
O=S(=O)(c1ccccc1)N(CC(F)(F)F)c1ccc(C(O)(C(F)(F)F)C(F)(F)F)cc1 [Example T0901317] | 14 fold | 4-5 fold | 4-5 fold | 5 fold | 4 fold | 10 fold | 2 fold | 6.5 fold |  |  |  |  | 
CC(C)CC[C@H](O)[C@@H](C)[C@H]1CC[C@H]2[C@@H]3CC=C4C[C@@H](O)CC[C@]4(C)[C@H]3CC[C@]12C [Example 22-S-HC, 22-S-hydroxycholesterol] | very slightly (but insignificantly) | None of the genes described in FIG. 5A-B were significantly affected | None of the genes described in FIG. 5A-B were significantly affected |  |  |  |  | seemed to reduce reporter activity | None of the genes described in FIG. 5A-B were significantly affected | 50-80% | 50-80% | 50-80% | significantly reduced
CC(C)CC[C@@H](O)[C@@H](C)[C@H]1CC[C@H]2[C@@H]3CC=C4C[C@@H](O)CC[C@]4(C)[C@H]3CC[C@]12C [Example 22-R-HC, 22-R-hydroxycholesterol] | 17 fold | 2-3 fold | 2-3 fold | unaffected | unaffected | unaffected | unaffected | unable to regulate the FAS gene promoter |  |  |  |  | significantly reduced
